The text below walks through data of PMC4990184, “The Tp0684 (MglB-2) Lipoprotein of Treponema pallidum: A Glucose-Binding Protein with Divergent Topology” (PLoS ONE, 2016).

Where two headings read alike, the source gives them in different places.

Test [1] addresses T1, TpMglB-2 (Tp0684), wild-type (Treponema pallidum, UniProt Q08255).
T1 construct: the DNA fragment encoding amino acid residues 11–378 (cloned without the post-translationally modified N-terminal Cys); made in house; host or cells: E. coli BL21 AI (co-transformed with pGroESL)
Description: Isothermal titration calorimetry (ITC) of sugars into wild-type TpMglB-2. The class given is binding. To be noted: for binding heats in ITC control titrations: wild-type TpMglB-2, qualitative. As to the method: (§1) TpMglB-2 was dialyzed exhaustively against Assay Buffer (10 mM sodium phosphate, pH 7.4, 100 mM NaCl). The sugars to be titrated were dissolved in the same buffer. All titrations were carried out in an iTC200 calorimeter (Malvern, Malvern, UK). A typical titration scheme featured 19 or 20 2-μL injections of 500 μM of the monosaccharide into 50 μM protein in the ca. 200-μL stirred interaction cell. However, the concentrations were sometimes altered to sample a wider range of concentration space. Three titrations were performed per sugar, and the resulting thermograms were serially integrated using NITPIC v. 1.1.7 [54, 78]. All titrations for a given sugar were globally analyzed in ITCsy[55], and confidence intervals were obtained using the error-surface projection method. All ITC illustrations were rendered in GUSSI [79].

Test [2] deals with T2, TpMglB-2 (Treponema pallidum, UniProt Q08255).
T2 construct: the DNA fragment encoding amino acid residues 11–378 (cloned without the post-translationally modified N-terminal Cys); made in house; host or cells: E. coli BL21 AI (co-transformed with pGroESL)
T2 sequence (Q08255 36-403): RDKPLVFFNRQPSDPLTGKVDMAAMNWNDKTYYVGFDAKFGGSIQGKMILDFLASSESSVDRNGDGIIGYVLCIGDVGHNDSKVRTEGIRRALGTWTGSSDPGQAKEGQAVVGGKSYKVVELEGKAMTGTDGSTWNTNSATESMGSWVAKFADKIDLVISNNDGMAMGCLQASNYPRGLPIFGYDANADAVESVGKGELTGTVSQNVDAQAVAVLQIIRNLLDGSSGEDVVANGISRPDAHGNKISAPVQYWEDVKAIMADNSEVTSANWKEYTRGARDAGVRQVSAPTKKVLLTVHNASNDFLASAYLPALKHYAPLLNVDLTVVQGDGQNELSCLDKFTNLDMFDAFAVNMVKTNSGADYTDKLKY
Kind of test: Differential scanning fluorimetry (DSF) carbon-source screen. The class given is binding. To be noted: for binding in the DSF assay: qualitative; for shift in Tm, app: 10 μM protein, BIOLOG compounds, vs water control. An excerpt: The unconventional structural organization and the altered Ca^2+-binding site of TpMglB-2 provoked a question: does such a structurally rearranged LBP function similarly to other LBPs? To address this question, we first examined ligand binding. In a previous study on TpMglB-2, we reported that the protein preferred D-glucose and D-galactose over a small number of other monsaccharide carbon sources. However, we wished to interrogate a larger panel of such sources to investigate whether another ligand would bind to the protein with even higher affinity. We thus employed differential scanning fluorimetry (DSF) as a means to probe for ligand binding. This method examines the apparent melting temperature (Tm, app) of the protein; the “apparent” nomenclature is added in recognition of the fact that the reversibility of the transition was not tested in these experiments. Presumably, in the presence of a specifically bound ligand, the protein’s structure will be stabilized, resulting in a higher Tm, app. We used this plate-based method to qualitatively assay for the binding of 190 carbon sources. Only D-glucose and D-galactose caused significant shifts (> 1.5° C) in Tm, app (Fig 5). Thus, these were the only candidate compounds that were selected for additional study.
The thermal stability of TpMglB-2 in the presence of various putative ligands was determined in a 96-well PCR-plate (Bio-Rad Laboratories, Inc., Hercules, CA). The assumption was that binding ligands would enhance the thermal stability of the protein. For carbon-source screening, Biolog's Phenotype MicroArray (PM) compounds supplied in 96-well microplates (BIOLOG, Inc., Hayward, CA) were dissolved in 50 μL of sterile water to obtain a final concentration of around 10–20 mM. Screenings were performed with plates PM1 and PM2A. Each plate contains 95 compounds and a blank (no ligand) control. The complete plate contents are available at the BIOLOG website (www.biolog.com).
Each 20 μL standard assay mixture in a 96-well PCR-plate contained 10 μM purified protein and SYPRO Orange (Life Technologies) at 5x concentration in a buffer containing 10 mM phosphate, 100 mM NaCl, pH 7.4. Two μL of the resuspended BIOLOG compounds were added to each well. The plate was sealed and placed in a BioRad CFX96 real-time PCR detector coupled to a C1000 thermal cycler (BioRad Laboratories, Inc., Hercules, CA), and the fluorescence of the dye was monitored as a function of temperature from 4° C to 95° C. Fluorescence readings were recorded every 0.5° C. The data were transformed to–dF/dT v. T curves, and the abscissas of the minima in these curves were defined as the apparent melting temperatures (Tm, app). Significant positive shifts in Tm, app were taken as positive results and were confirmed using ITC.
(Differential scanning fluorimetry follows unfolding on heating by fluorescence.)

Test [3] deals with T2, TpMglB-2.
For test [4], the target named is T3, TpMglB-2 N19A (Treponema pallidum, UniProt Q08255, N44A).
T3 construct: the DNA fragment encoding amino acid residues 11–378 (cloned without the post-translationally modified N-terminal Cys); made in house; host or cells: E. coli BL21 AI
T3 sequence (Q08255 36-403 N44A): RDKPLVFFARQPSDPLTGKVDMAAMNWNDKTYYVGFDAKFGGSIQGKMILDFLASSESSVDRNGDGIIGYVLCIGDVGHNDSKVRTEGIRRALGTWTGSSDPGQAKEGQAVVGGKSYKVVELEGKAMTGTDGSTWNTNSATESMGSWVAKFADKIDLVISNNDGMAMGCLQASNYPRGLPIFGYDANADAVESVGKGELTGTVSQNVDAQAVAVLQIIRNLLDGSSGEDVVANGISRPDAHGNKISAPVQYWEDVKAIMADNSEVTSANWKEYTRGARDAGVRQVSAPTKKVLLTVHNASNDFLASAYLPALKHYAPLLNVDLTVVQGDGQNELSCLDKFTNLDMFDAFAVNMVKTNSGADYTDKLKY
Kind of test: ITC of D-glucose into TpMglB-2 N19A variant. It counts as binding. Details: key: NH: No observable heat of ligand binding. As to the method:
(§2) For the construction of the recombinant TpMglB-2 variants, the N19A, W145A, D195A and F313A mutation was individually introduced into the plasmid carrying the wild-type tp0684 sequence using the QuikChange site-directed mutagenesis kit (Agilent Technologies, Santa Clara, CA). The mutation was confirmed by DNA sequencing. The mutant protein was expressed and purified as described above. Protein concentrations were determined in buffer A (20 mM Hepes, 0.1 M NaCl, pH 7.5, 2 mM n-Octyl-β-D-glucopyranoside) using spectrophotometry. Extinction coefficients were calculated using the Protparam tool of ExPASy (www.expasy.org).
as §1, with “All ITC illustrations were rendered in GUSSI [79].” left out

Test [5] addresses T4, TpMglB-2 W145A (Treponema pallidum, UniProt Q08255, W170A).
T4 construct: the DNA fragment encoding amino acid residues 11–378 (cloned without the post-translationally modified N-terminal Cys); made in house; host or cells: E. coli BL21 AI
Kind of test: ITC of D-glucose into TpMglB-2 W145A variant. It counts as binding. As to the method: as §2
as §1, with “All ITC illustrations were rendered in GUSSI [79].” left out

The target of test [6] is T5, TpMglB-2 D195A (Treponema pallidum, UniProt Q08255, D220A).
T5 construct: the DNA fragment encoding amino acid residues 11–378 (cloned without the post-translationally modified N-terminal Cys); made in house; host or cells: E. coli BL21 AI
T5 sequence (Q08255 36-403 D220A): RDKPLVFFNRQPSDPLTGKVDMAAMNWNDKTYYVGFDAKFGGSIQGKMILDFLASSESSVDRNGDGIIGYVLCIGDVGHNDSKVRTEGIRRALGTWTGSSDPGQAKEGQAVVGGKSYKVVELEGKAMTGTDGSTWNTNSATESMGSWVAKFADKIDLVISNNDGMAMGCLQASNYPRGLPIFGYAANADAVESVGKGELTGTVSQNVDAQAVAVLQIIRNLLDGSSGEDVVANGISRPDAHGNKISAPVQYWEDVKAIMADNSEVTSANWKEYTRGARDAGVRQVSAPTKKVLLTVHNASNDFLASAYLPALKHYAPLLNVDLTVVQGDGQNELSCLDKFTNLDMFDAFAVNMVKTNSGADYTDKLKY
Kind of test: ITC of D-glucose into TpMglB-2 D195A variant. It counts as binding. Details: key: NH: No observable heat of ligand binding. The method, then: as §2
as §1, with “All ITC illustrations were rendered in GUSSI [79].” left out

Test [7] has as its target T6, TpMglB-2 F313A (Treponema pallidum, UniProt Q08255, F338A).
T6 construct: the DNA fragment encoding amino acid residues 11–378 (cloned without the post-translationally modified N-terminal Cys); made in house; host or cells: E. coli BL21 AI
Description: ITC of D-glucose into TpMglB-2 F313A variant. The class given is binding. Details: key: NH: No observable heat of ligand binding. As to the method: as §2
as §1, with “All ITC illustrations were rendered in GUSSI [79].” left out

The target in test [8] is T2, TpMglB-2. Kind of test: Sedimentation velocity analytical ultracentrifugation (conventional SV). The note with it: 100 μM D-glucose, 20° C; 95% confidence interval in brackets; apo-TpMglB-2 3.212 S. As to the method:
Our initial attempt to examine whether this small difference could be detected was conducted using conventional SV. In experiments carried out simultaneously, we sedimented apo-TpMglB-2 and also the protein in the presence of 100 μM D-glucose. By analyzing the data with a non-interacting discrete species model, we could perform a careful analysis using F-statistics that would establish realistic 95% confidence intervals (shown below in brackets) on the refined parameter s. For apo-TpMglB-2, the refined experimental s-value was 3.212 [3.204–3.219] S. The same value of the protein in the presence of D-glucose was 3.292 [3.288–3.297] S. We can estimate the statistical significance of this difference the F-statistic formalism. If we fix the s-value of the apo-protein to that of the liganded protein and repeat the analysis, we arrive at a χ^2 ratio between the two analyses of 1.86. […]
All AUC experiments were carried out at 20° C in a Beckman-Coulter Optima XL-I centrifuge (Beckman-Coulter Inc., Indianapolis, IN), and Assay Buffer was used in all cases. […] Centrifugation continued for about 16 h, and concentration-profile data were collected using both absorbance and interference optics. Data were initially analyzed using the c(s) method in SEDFIT [82, 83]. As warranted, data were also analyzed using a discrete-species model in SEDPHAT [62].

The target of test [9] is T2, TpMglB-2. Kind of test: Difference sedimentation velocity. The note with it: for Δs/s¯: 5 mg/mL TpMglB-2, 95% confidence interval in brackets. The method, then:
Minute sedimentation-coefficient differences are readily detected using a method pioneered in H. Schachman’s lab called “difference sedimentation velocity” [64]. This method provides a direct, side-by-side comparison of the sedimentation velocity of two macromolecular solutes. In brief, two samples of 5 mg/mL TpMglB-2 were prepared. To one sample, a non-binding sugar, either D-mannose or D-ribose (these sugars evidenced no binding in neither the DSF nor ITC assays), was introduced, whereas an identical concentration of D-glucose was added to the other. The protein sample with the non-binding sugar was placed in the reference sector of a centrifugation centerpiece, and the sample sector of the same centerpiece was filled with the D-glucose-containing protein solution. Centrifugation was initiated, and Rayleigh laser interferometry was used to monitor the sedimentation. Because this mode of data collection reports on refractive-index differences between the two sectors, the difference between the sedimentation in the two sectors is recorded. This signal (for unequal solution-column heights) will appear roughly as a Gaussian-shaped curve inverted about the radial axis (Fig 8A). If the macromolecular solutes in each sector sediment at different rates, the absolute value of the area of (or, more specifically, the normalized first moment of) this curve will increase as sedimentation continues. This trend reports on the fractional sedimentation-coefficient difference between the solutes in the reference and sample sectors, termed Δs/s¯ , i.e. the change in s normalized by the mean s-value. […]
For difference SV studies, a slightly different protocol was followed. […] Sedimentation and sedimentation differences were monitored using the interference optics only; scans were obtained every 60 s for almost 17 h.
As presented by the data-acquisition software, interference data have the amount of fringe displacement, J, on the y-axis and the radius from the center of rotation on x-axis (r). In this case, of course, the difference in fringe displacement, ΔJ, was measured. […]

T1 sequence (Q08255 36-403): as the sequence (Q08255 36-403) above
T4 sequence (Q08255 36-403 W170A): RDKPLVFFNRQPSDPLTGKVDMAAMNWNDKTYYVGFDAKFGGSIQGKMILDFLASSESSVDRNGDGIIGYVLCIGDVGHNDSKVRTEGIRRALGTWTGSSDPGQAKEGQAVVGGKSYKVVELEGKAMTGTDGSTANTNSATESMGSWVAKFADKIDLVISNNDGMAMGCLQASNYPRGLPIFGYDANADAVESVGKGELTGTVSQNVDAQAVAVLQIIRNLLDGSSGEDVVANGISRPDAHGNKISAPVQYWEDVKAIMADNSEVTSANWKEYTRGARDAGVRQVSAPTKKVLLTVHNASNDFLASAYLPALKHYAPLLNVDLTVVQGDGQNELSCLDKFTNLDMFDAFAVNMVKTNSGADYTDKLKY
T6 sequence (Q08255 36-403 F338A): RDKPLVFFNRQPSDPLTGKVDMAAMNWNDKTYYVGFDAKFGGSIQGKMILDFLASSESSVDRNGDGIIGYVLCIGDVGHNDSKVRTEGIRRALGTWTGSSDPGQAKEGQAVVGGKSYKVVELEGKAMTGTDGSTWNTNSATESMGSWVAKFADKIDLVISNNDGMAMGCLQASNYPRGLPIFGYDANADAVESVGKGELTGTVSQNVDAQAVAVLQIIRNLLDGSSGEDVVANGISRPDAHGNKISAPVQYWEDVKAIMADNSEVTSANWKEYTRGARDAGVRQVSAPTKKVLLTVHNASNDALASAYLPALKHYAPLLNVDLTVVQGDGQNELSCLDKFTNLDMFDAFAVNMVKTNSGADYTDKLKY

On to `OC[C@H]1OC(O)[C@@H](O)[C@@H](O)[C@@H]1O` (stereo partly drawn) [D-Mannose, reference compound], for which the “binding heats in ITC control titrations” value in test [1] is “failed to exhibit any binding heats”. The “binding in the DSF assay” value in test [2] is reported as “failed to bind”.
`O=C[C@H](O)[C@@H](O)[C@@H](O)[C@H](O)CO` [D-galactose]: in test [1] (wild-type TpMglB-2), the “KD for D-galactose relative to that of D-glucose” value amounted to 30 fold. Further, in test [2], the “shift in Tm, app” value was above 1.5 °C. Besides, the Kd in [3] (read-out: equilibrium dissociation constant; similar TpMglB-2 construct, 20 mM NaCl; cited from earlier work) was 250 nM.
As to `OC[C@H]1OC(O)[C@H](O)[C@@H](O)[C@@H]1O` (stereo partly drawn) [D-glucose], the Kd in test [1] (wild-type TpMglB-2, 10 mM sodium phosphate pH 7.4, 100 mM NaCl, 68.3% confidence intervals in brackets) is 1100 nM; in test [5] (W145A variant, 68.3% confidence intervals in brackets), 12700 nM; in test [3] (similar TpMglB-2 construct, 20 mM NaCl; read-out: equilibrium dissociation constant; cited from earlier work), 150 nM. Further, the results for the KD entry in test [4], in test [6] and in [7] were “NH^b”, “NH” and “NH”, respectively. The “KD for glucose binding of W145A relative to the wild-type protein” value in test [5] is listed as “tenfold higher”. Besides, the “shift in Tm, app” value in test [2] was above 1.5 °C. Also, the “refined experimental s-value of TpMglB-2 in the presence of the sugar” value in test [8] is 3.292 [3.288–3.297] S. The “Δs/s¯” value in test [9] (D-glucose in sample sector vs D-mannose in reference sector) was “about 0.0177 [0.0163, 0.0191]”; in test [9] (D-glucose in sample sector vs D-ribose in reference sector) it was 0.0180 [0.0163, 0.0197]. Further, the “observed change in s (Δs/s¯ multiplied by the observed s, 3.2 S)” value in test [9] (D-glucose vs non-binding sugar) is on record as “approximately 0.06 S”.
Consider `O=C[C@H](O)[C@H](O)[C@H](O)CO` [D-ribose, reference compound], for which, in test [1], the “binding heats in ITC control titrations” value is recorded as “failed to exhibit any binding heats”. In addition, the “binding in the DSF assay” value in test [2] is “failed to bind”.
